Experimental data reported in ChEMBL document CHEMBL1149878, “Tetramic and tetronic acids: an update on new derivatives and biological aspects” (Bioorg Med Chem, 2008).
pIC50, pKd: −log10 of the molar value. Values after ≈ are worked out from the molar mass of the structure shown. Where a SMILES comes first, the peptide text is derived from it. [ ]: non-standard residue; d: D form. The star is where a group is joined. X1 = COC1=CC(=O)N(C(=O)[C@@H](O*)C(C)C)[C@H]1Cc1ccccc1; NMe2Val = CC(C)[C@@H](C(=O)*)N(C)C; NMeV = CN[C@H](C(=O)O)C(C)C

Legend:
[1] = Inhibition of Escherichia coli H560 DNA gyrase
Glutamate NMDA receptor = test: Displacement of [3H]L689560 from glycine site of rat NMDA receptor; assay type: protein-complex assay
[2] = target: Glutamate NMDA receptor (Rattus norvegicus) (UniProt P35439+Q00959+Q00960+Q00961+Q62645+Q8VHN2+Q9R1M7); test: Antagonist activity at NMDA receptor in rat cortex assessed as inhibition of NMDA-induced depolarization; assay type: functional, tissue-based
[3] = Inhibition of HCV NS5B polymerase; set-up: species or system Hepacivirus hominis
Staphylococcus aureus [4] = test: Antimicrobial activity against Staphylococcus aureus; assay type: functional
Escherichia coli = test: Antimicrobial activity against Escherichia coli; assay type: functional
[5] = Inhibition of Escherichia coli MurB
Beta-secretase 1 = Beta-secretase 1 (Homo sapiens, UniProt P56817); test: Inhibition of BACE1 by FRET assay
Staphylococcus aureus [6] = test: Growth inhibition of multidrug resistant Staphylococcus aureus; assay type: functional, organism-based
Enterococcus faecalis [7] = test: Growth inhibition of multidrug resistant Enterococcus faecalis; assay type: functional, organism-based
HeLa = test: Growth inhibition of human HeLa cells; assay type: functional, cell-based
[8] = Selectivity for cdc25B over VHR
[9] = target: M-phase inducer phosphatase 2 (Homo sapiens, UniProt P30305); test: Inhibition of cdc25B
SK-OV-3 = test: Cytotoxicity against human SK-OV-3 cells; assay type: functional, cell-based
A549 [10] = test: Cytotoxicity against human A549 cells; assay type: functional, cell-based
HCT-15 = test: Cytotoxicity against human HCT15 cells; assay type: functional, cell-based
SK-MEL-2 = test: Cytotoxicity against human SK-Mel-2 cells; assay type: functional, cell-based
XF498 = test: Cytotoxicity against human XF498 cells; assay type: functional, cell-based
Bacteroides fragilis = test: Antimicrobial activity against Bacteroides fragilis; assay type: functional
Eubacterium limosum = test: Antimicrobial activity against Eubacterium limosum; assay type: functional
Phocaeicola vulgatus = test: Antimicrobial activity against Bacteroides vulgatus; assay type: functional
Bacteroides sp. = test: Antimicrobial activity against Bacteroides melaninogenicus; assay type: functional
[11] = tested on: Streptococcus constellatus; test: Antimicrobial activity against Streptococcus constellatus; assay type: functional
Bifidobacterium longum = test: Antimicrobial activity against Bifidobacterium longum; assay type: functional
Fusobacterium nucleatum = test: Antimicrobial activity against Fusobacterium nucleatum; assay type: functional
Clostridioides difficile = test: Antimicrobial activity against Clostridium difficile; assay type: functional
[12] = tested on: Fusobacterium necrophorum; test: Antimicrobial activity against Fusobacterium necrophorum; assay type: functional
Enterococcus [13] = test: Growth inhibition of multidrug resistant Enterococcus; assay type: functional
[14] = Toxicity in rat; assay type: organism-based; settings: in vivo, read-out: LC50 (the source's name)
B16 = test: Cytotoxicity against mouse B16 cells; assay type: functional, cell-based
Plasmodium falciparum = test: Antiplasmodial activity against Plasmodium falciparum after 72 hrs; assay type: functional, organism-based
[15] = target: Human immunodeficiency virus type 1 integrase (Human immunodeficiency virus 1, UniProt Q7ZJM1); test: Inhibition of HIV1 integrase strand transfer activity
A498 = test: Growth inhibition of human A498 cells; assay type: functional, cell-based
[16] = Growth inhibition of human KB3-1 cells; assay type: functional, cell-based; settings: KB 3-1
L929 = test: Growth inhibition of mouse L929 cells; assay type: cell-based
HL-60 = test: Growth inhibition of human HL60 cells by MTT assay after 24 hrs; assay type: functional, cell-based; settings: HL-60, 24 h
P388 = test: Growth inhibition of mouse P388 cells by MTT assay after 24 hrs; assay type: functional, cell-based; settings: P388, 24 h
A549 [17] = test: Growth inhibition of human A549 cells by MTT assay after 24 hrs; assay type: functional, cell-based; settings: A549, 24 h
Bel-7402 = test: Growth inhibition of human Bel7402 cells by MTT assay after 24 hrs; assay type: functional, cell-based; settings: Bel-7402, 24 h
Streptococcus pyogenes = test: Antimicrobial activity against Streptococcus pyogenes 930; assay type: functional
Enterococcus [18] = test: Antimicrobial activity against Enterococcus; assay type: functional
Streptococcus equinus = test: Antimicrobial activity against Streptococcus bovis A5169; assay type: functional
Legionella = test: Antimicrobial activity against Legionella; assay type: functional
Staphylococcus aureus [19] = test: Antimicrobial activity against methicillin-resistant Staphylococcus aureus F597; assay type: functional
Enterococcus faecalis [20] = test: Antimicrobial activity against Enterococcus faecalis; assay type: functional

Beta-secretase 1, sequence (P56817 whole entry): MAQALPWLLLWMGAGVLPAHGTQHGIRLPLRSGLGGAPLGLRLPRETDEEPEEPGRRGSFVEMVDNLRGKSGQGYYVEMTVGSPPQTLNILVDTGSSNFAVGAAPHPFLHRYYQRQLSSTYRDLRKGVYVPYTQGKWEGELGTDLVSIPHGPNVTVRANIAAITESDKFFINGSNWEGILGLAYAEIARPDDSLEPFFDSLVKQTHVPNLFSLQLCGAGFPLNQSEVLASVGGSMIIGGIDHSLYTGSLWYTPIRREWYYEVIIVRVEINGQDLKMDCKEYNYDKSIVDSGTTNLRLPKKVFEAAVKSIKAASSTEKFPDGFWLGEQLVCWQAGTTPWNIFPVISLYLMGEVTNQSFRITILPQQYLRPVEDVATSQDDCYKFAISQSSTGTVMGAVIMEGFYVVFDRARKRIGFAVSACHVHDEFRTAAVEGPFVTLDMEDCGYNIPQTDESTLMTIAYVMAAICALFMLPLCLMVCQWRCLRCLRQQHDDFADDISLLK
M-phase inducer phosphatase 2, sequence (P30305 whole entry): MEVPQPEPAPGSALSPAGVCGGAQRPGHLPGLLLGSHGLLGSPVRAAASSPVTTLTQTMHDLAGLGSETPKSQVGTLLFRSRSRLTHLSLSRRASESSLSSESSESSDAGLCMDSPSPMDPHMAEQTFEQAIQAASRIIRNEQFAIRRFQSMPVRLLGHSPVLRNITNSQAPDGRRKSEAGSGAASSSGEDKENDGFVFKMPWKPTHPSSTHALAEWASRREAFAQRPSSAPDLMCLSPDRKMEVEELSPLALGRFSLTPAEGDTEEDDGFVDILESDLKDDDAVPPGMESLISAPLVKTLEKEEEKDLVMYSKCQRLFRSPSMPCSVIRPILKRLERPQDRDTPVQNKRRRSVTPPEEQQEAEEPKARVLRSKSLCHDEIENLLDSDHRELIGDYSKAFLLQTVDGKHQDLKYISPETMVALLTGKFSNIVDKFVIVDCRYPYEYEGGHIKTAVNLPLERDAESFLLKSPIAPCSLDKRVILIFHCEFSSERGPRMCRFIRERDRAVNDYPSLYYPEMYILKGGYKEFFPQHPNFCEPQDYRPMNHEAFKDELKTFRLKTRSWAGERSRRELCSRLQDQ
Human immunodeficiency virus type 1 integrase, sequence (Q7ZJM1 whole entry): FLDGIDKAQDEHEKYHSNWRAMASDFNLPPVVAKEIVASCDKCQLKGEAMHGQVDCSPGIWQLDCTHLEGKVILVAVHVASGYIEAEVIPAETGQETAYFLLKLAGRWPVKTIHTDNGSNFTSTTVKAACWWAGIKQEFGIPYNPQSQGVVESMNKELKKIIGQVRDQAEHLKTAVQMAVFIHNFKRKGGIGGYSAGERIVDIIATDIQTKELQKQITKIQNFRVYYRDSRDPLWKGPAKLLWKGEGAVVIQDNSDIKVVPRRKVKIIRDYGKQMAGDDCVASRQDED

CC(/C=C/C(O)=C1\C(=O)CNC1=O)=C\c1ccc2ccccc2c1
IC50 [1]: 3.5 µg/mL (≈ 11 µM)

CC(/C=C/C(=O)C1=C(O)CN(C)C1=O)=C\c1ccc2ccccc2c1
IC50 [1]: 10.3 µg/mL (≈ 30.9 µM)

CC/C=C1\NC(=O)C(c2cccc(Oc3ccccc3)c2)=C1O
pIC50 (Glutamate NMDA receptor): 6.15
Kb [2]: 6.15 µM

CC(C)(C)CN1C(=O)C(C2=NS(=O)(=O)c3ccccc3N2)=C(O)[C@@H]1C(C)(C)C
pIC50 [3]: 8.77

O=C1O/C(=C\c2cccc3ccccc23)C(O)=C1c1cc(Cl)cc(Cl)c1
MIC (Staphylococcus aureus [4]): 1 µg/mL (≈ 2.61 µM)
MIC (Escherichia coli): 1 µg/mL (≈ 2.61 µM)
pIC50 [5]: 4.68
pKd [5]: 7.40

CCC(C)C1NC(=O)C(SCc2cccc(C(F)(F)F)c2)=C1O (stereo unspecified)
pIC50 (Beta-secretase 1): 4.22

C[C@@H]1CC[C@@H]2[C@H](C=C[C@@H](C)[C@@]2(C)/C(O)=C2/C(=O)[C@H]([C@H](C)O)N(C)C2=O)C1
IC50 (Staphylococcus aureus [6]): 10 µg/mL (≈ 27.7 µM)
IC50 (Enterococcus faecalis [7]): 20 µg/mL (≈ 55.3 µM)
IC90 (HeLa): 7.1 µg/mL (≈ 19.6 µM)

CCCCCCCCCCCCCCCC(=O)C1=C(O)[C@@H](COC(=O)N=C=NC(=O)OCC)OC1=O
Selectivity ratio [8]: 30
pIC50 [9]: 6.40

C=C1C=C(CCC/C(C)=C/C=C/[C@H](C)CC/C=C(/C)CC2OC(=O)C(C)=C2O)C(=O)N1CCC(C)C (stereo partly drawn) [(R)-SARCOTRINE A]
IC50 (SK-OV-3): 3.4 µg/mL (≈ 6.86 µM)
IC50 (A549 [10]): 3.4 µg/mL (≈ 6.86 µM)
IC50 (HCT-15): 3.4 µg/mL (≈ 6.86 µM)
IC50 (SK-MEL-2): 3.4 µg/mL (≈ 6.86 µM)
IC50 (XF498): 3.4 µg/mL (≈ 6.86 µM)

C=C1C=C(CCC/C(C)=C/C=C/[C@@H](C)CC/C=C(/C)CC2OC(=O)C(C)=C2O)C(=O)N1CCC(C)C (stereo partly drawn) [(S)-SARCOTRINE A]
IC50 (SK-OV-3): 3.4 µg/mL (≈ 6.86 µM)
IC50 (A549 [10]): 3.4 µg/mL (≈ 6.86 µM)
IC50 (HCT-15): 3.4 µg/mL (≈ 6.86 µM)
IC50 (SK-MEL-2): 3.4 µg/mL (≈ 6.86 µM)
IC50 (XF498): 3.4 µg/mL (≈ 6.86 µM)

C=C1OC(=O)/C(=C(\O)CCCCCCCCC)C1=O [AGGLOMERIN A]
MIC (Bacteroides fragilis): 3.13 µg/mL (≈ 11.8 µM)
MIC (Eubacterium limosum): 6.25 µg/mL (≈ 23.5 µM)
MIC (Phocaeicola vulgatus): 3.13 µg/mL (≈ 11.8 µM)
MIC (Bacteroides sp.): 6.25 µg/mL (≈ 23.5 µM)
MIC [11]: 3.13 µg/mL (≈ 11.8 µM)
MIC (Bifidobacterium longum): 6.25 µg/mL (≈ 23.5 µM)
MIC (Fusobacterium nucleatum): 6.25 µg/mL (≈ 23.5 µM)
MIC (Clostridioides difficile): 3.13 µg/mL (≈ 11.8 µM)
MIC [12]: 6.25 µg/mL (≈ 23.5 µM)

C/C=C/C=C/[C@@H]1C(C)=C[C@@H]2C[C@H](C)CC[C@H]2[C@]1(C)/C(O)=C1\C(=O)N[C@@H]([C@H](C)O)C1=O [CONIOSETIN]
MIC (Enterococcus [13]): 2.5 µg/mL (≈ 6.05 µM)
MIC (Staphylococcus aureus [6]): 0.3 µg/mL (≈ 0.725 µM)

CC(=O)C1=C(O)[C@@H]2[C@H]3c4c[nH]c5cccc(c45)C[C@H]3C(C)(C)N2C1=O [CYCLOPIAZONIC ACID]
LD50 [14]: 30 mg/kg

C[C@H]1C=CC2C1C[C@H]1/C=C/CC/C(O)=C3/C(=O)N[C@H](C3=O)[C@@H](O)CCNC(=O)/C=C/C=C\C[C@H]21 (stereo partly specified) [CYLINDRAMIDE]
IC50 (B16): 0.8 µg/mL (≈ 1.71 µM)

COC1=CC(=O)N(C(=O)[C@@H](OC(=O)[C@@H]2CCCN2C(=O)[C@@H]2CCCN2C(=O)[C@H](C(C)C)N(C)C(=O)[C@@H](NC(=O)[C@H](C(C)C)N(C)C)C(C)C)C(C)C)[C@H]1Cc1ccccc1 [DOLASTATIN 15] (NMe2Val-V[NMeV]PP-X1)
pIC50 (Plasmodium falciparum): 6.70

CC1=C[C@@H]2CC[C@@H](O)[C@H](C)[C@@H]2[C@@H](C(=O)C2=C(O)C(O)NC2=O)[C@@H]1C[C@H]1O[C@@]2(CC[C@H](C)[C@@H](c3cc(O)cc(O)c3)O2)[C@@H](C)C[C@@H]1C (stereo partly specified) [INTEGRAMYCIN]
pIC50 [15]: 5.40

CCCCCCCCC(C)CC/C(O)=C1\C(=O)[C@H](C)N(C)C1=O (stereo partly specified) [MELOPHLIN B]
pIC50 (A498): > 5.00
pIC50 [16]: > 5.00
pIC50 (HeLa): > 5.00
pIC50 (L929): > 5.00

CCCCCCCC(C)CCC/C(O)=C1\C(=O)C(C)N(C)C1=O (stereo unspecified) [MELOPHLIN C]
pIC50 (A498): > 5.00
pIC50 [16]: > 5.00
pIC50 (HeLa): > 5.00
pIC50 (L929): > 5.00

CC(C)CCCCCCCCCCC/C(O)=C1\C(=O)C(C)N(C)C1=O (stereo unspecified) [MELOPHLIN Q]
pIC50 (A498): 5.47

CCC(C)CCCCCCCCCC/C(O)=C1\C(=O)C(C)N(C)C1=O (stereo unspecified) [MELOPHLIN R]
pIC50 (A498): > 5.00
pIC50 [16]: > 5.00
pIC50 (HeLa): > 5.00
pIC50 (L929): > 5.00

CCn1cc(C(=O)O)c(=O)c2cc(F)c(N3CCNCC3)cc21 [NORFLOXACIN]
IC50 [1]: 1 µg/mL (≈ 3.13 µM)

CCCCCCC(C)/C(O)=C1\C(=O)[C@H]([C@H](C)O)N(C)C1=O (stereo partly specified) [PENICILLENOL A1]
pIC50 (HL-60): 6.12

CCCCCCC(C)/C(O)=C1\C(=O)[C@@H]([C@@H](C)O)N(C)C1=O (stereo partly specified) [PENICILLENOL A2]
pIC50 (P388): < 4.00
pIC50 (A549 [17]): < 4.00
pIC50 (Bel-7402): < 4.00

C/C=C1/C(=O)/C(=C(/O)C(C)CCCCCC)C(=O)N1C (stereo unspecified) [PENICILLENOL B1]
pIC50 (P388): < 4.00
pIC50 (A549 [17]): < 4.00
pIC50 (HL-60): 5.49
pIC50 (Bel-7402): < 4.00

C/C=C1\C(=O)/C(=C(/O)C(C)CCCCCC)C(=O)N1C (stereo unspecified) [PENICILLENOL B2]
pIC50 (P388): < 4.00
pIC50 (A549 [17]): < 4.00
pIC50 (Bel-7402): < 4.00

C/C=C/CCCC(C)/C(O)=C1\C(=O)[C@H]([C@H](C)O)N(C)C1=O (stereo partly specified) [PENICILLENOL C1]
pIC50 (P388): < 4.00
pIC50 (A549 [17]): < 4.00
pIC50 (HL-60): < 4.00
pIC50 (Bel-7402): < 4.00

C/C=C/CCCC(C)/C(O)=C1\C(=O)[C@@H]([C@@H](C)O)N(C)C1=O (stereo partly specified) [PENICILLENOL C2]
pIC50 (P388): < 4.00
pIC50 (A549 [17]): < 4.00
pIC50 (HL-60): < 4.00
pIC50 (Bel-7402): < 4.00

CC(/C=C/C(O)=C1/C(=O)CNC1=O)=C\[C@@H](C)[C@H]1O[C@@]2(C)O[C@@H](C=C[C@@]23CO3)[C@H]1C [TIRANDALYDIGIN]
MIC (Streptococcus pyogenes): 3.1 µg/mL (≈ 7.72 µM)
MIC (Bacteroides fragilis): 0.5 µg/mL (≈ 1.25 µM)
MIC (Enterococcus [18]): > 16 µg/mL
MIC (Streptococcus equinus): 12.5 µg/mL (≈ 31.1 µM)
MIC (Legionella): > 32 µg/mL

CC1=C[C@H]2[C@H](O)CC[C@@](C)(/C(O)=C3/C(=O)CNC3=O)[C@H]2C[C@@H]1CCC(C)C(O)/C(C)=C/CC(O)/C=C/C(C)C(O)/C=C/CC(O)/C=C/CC(O)CC1CCCN1C(=N)N (stereo partly specified) [TPU-0037 A]
MIC (Staphylococcus aureus [19]): 3.13 µg/mL (≈ 3.79 µM)

C/C(=C\CC(O)CC(O)CCC(C)C(O)C(C)C(O)CCCC(O)C(C)C(O)/C(C)=C/C(C)C(=O)/C(C)=C/C(O)C(O)CC(O)CC(OC1OC(C)C(O)C(N)C1O)C(C)CCC(O)CC(O)CCC(C)C(O)C(C)C(O)C(C)C)C(=O)C1=C(O)/C(=C/C(C)C)N(C)C1=O (stereo unspecified) [VANCORESMYCIN]
MIC (Staphylococcus aureus [4]): < 0.04 µg/mL
MIC (Enterococcus faecalis [20]): 0.3 µg/mL (≈ 0.223 µM)
